Assay results: patent US20240158446A1, “CYCLIC COMPOUND HAVING SELECTIVE INHIBITORY ACTION ON KRAS OVER HRAS AND NRAS” (CHUGAI SEIYAKU KABUSHIKI KAISHA, priority 2021, published 2024)
Read-outs that look alike come from different tables or passages of the source. Where a SMILES comes first, the peptide text is derived from it. Bridges are numbered along the chain shown (N, C = ends). [ ]: non-standard residue; d: D form. The star is where a group is joined. hPhe(3,5-F2-4-CF3) = N[C@@H](CCc1cc(F)c(C(F)(F)F)c(F)c1)C(=O)O; NPrPhe(4-CF3) = CCCN[C@@H](Cc1ccc(C(F)(F)F)cc1)C(=O)O; NMeGly(cPent) = CN[C@H](C(=O)O)C1CCCC1; NMeD = CN[C@@H](CC(=O)O)C(=O)O; NMeL = CN[C@@H](CC(C)C)C(=O)O; αMeS = C[C@](N)(CO)C(=O)O; Morpholide = C1CN(*)CCO1; Sar = CNCC(=O)O; tBu = CC(C)(C)*

Tests used:
[1] = tested on: human lung cancer strain NCI-H441;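 note: cell proliferation inhibition after four days measured by CellTiter-Glo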
[2] = target: GDP-bound NRAS wild-type protein (Homo sapiens, UniProt P01111); experiment: Binding to NRAS by surface plasmon resonance (SPR), Single Cycle Kinetics; details: for NRAS/KRAS (ratio of KD value with respect to GDP-bound NRAS wild-type protein to KD value with respect to KRAS): SPR KD ratio NRAS/KRAS, class symbols
Chain of GDP-bound NRAS wild-type protein (P01111 whole entry): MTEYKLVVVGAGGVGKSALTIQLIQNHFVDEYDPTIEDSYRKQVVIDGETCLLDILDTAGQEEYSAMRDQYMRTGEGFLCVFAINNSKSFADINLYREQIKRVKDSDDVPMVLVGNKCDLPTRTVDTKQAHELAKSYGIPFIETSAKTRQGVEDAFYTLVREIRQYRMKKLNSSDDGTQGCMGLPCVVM

[3] = target: GDP-bound HRAS wild-type protein (Homo sapiens, UniProt P01112); experiment: Binding to HRAS by surface plasmon resonance (SPR), Single Cycle Kinetics; details: for HRAS/KRAS (ratio of KD value with respect to GDP-bound HRAS wild-type protein to KD value with respect to KRAS): SPR KD ratio HRAS/KRAS, class symbols
Chain of GDP-bound HRAS wild-type protein (P01112 whole entry): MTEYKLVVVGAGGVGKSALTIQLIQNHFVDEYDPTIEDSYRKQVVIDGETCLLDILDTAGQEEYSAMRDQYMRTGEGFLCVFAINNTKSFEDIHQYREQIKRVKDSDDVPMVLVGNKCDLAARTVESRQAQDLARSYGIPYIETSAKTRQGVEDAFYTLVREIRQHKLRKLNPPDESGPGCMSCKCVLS

[4] = target: GDP-bound KRAS wild-type protein (Homo sapiens, UniProt P01116); experiment: Binding to KRAS by surface plasmon resonance (SPR), Single Cycle Kinetics; details: GDP-bound KRAS wild-type protein, read-out: KRAS KD
Chain of GDP-bound KRAS wild-type protein (P01116 whole entry): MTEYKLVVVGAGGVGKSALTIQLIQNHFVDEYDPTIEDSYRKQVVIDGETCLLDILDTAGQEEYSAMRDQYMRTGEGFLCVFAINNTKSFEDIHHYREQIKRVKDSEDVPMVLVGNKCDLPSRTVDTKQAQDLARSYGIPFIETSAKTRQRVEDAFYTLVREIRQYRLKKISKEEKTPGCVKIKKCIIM

[5] = SPR, GDP-bound NRAS wild-type protein vs GDP-bound KRAS wild-type protein, KD ratio class
[6] = SPR, GDP-bound HRAS wild-type protein vs GDP-bound KRAS wild-type protein, KD ratio class
[7] = SPR, Single Cycle Kinetics, 1:1 binding model
[8] = SPR, GDP-bound NRAS wild-type protein vs GDP-bound KRAS wild-type protein
[9] = SPR, GDP-bound HRAS wild-type protein vs GDP-bound KRAS wild-type protein
[10] = SPR Single Cycle Kinetics, 1:1 binding model

| SMILES | IC50 [1] | Kd [4, 7] | Kd ([4]; SPR, Single Cycle Kinetics) | NRAS/KRAS (ratio of KD value for NRAS to KD value for KRAS) [2, 5] | HRAS/KRAS (ratio of KD value for HRAS to KD value for KRAS) [3, 6] | NRAS/KRAS (ratio of KD value for NRAS to KD value for KRAS) [2, 8] | HRAS/KRAS (ratio of KD value for HRAS to KD value for KRAS) [3, 9] | also measured |
| --- | --- | --- | --- | --- | --- | --- | --- | --- |
| CCO[C@@H]1C[C@H]2C(=O)NC3(CCC3)C(=O)N(C)[C@@H](C3CCCC3)C(=O)N(C)[C@H](C(=O)N3CCOCC3)CC(=O)N(C)[C@@H](CC3CCCCC3)C(=O)N[C@@H]([C@@H](C)CC)C(=O)N(C)CC(=O)N(C)[C@H]3C/C=C\CCN(C3=O)[C@@H](Cc3ccc(C)cc3)C(=O)N(C)CC(=O)N[C@@H](CCc3cc(F)c(C(F)(F)F)c(F)c3)C(=O)N2C1 [PP1420] | 31.4 nM | 0.35 nM | – | A (a compound having 10 or more and less than 20 is denoted as A) | A (a compound having 10 or more and less than 20 is denoted as A) | – | – | – |
| CCO[C@@H]1C[C@H]2C(=O)NC3(CCC3)C(=O)N(C)[C@@H](C3CCCC3)C(=O)N(C)[C@H](C(=O)N3CCOCC3)CC(=O)N(C)[C@@H](Cc3ccsc3)C(=O)N[C@@H]([C@@H](C)CC)C(=O)N(C)CC(=O)N(C)[C@H]3CCCCCN(C3=O)[C@@H](Cc3ccc(C(F)(F)F)cc3)C(=O)N(C)CC(=O)N[C@@H](CCc3cc(F)c(C(F)(F)F)c(F)c3)C(=O)N2C1 [PP1164] | 95.9 nM | – | 0.52 nM | – | – | B (a compound having 3 or more and less than 10 is denoted as B) | B (a compound having 3 or more and less than 10 is denoted as B) | – |
| CCO[C@@H]1C[C@H]2C(=O)NC3(CCC3)C(=O)N(C)[C@@H](C3CCCC3)C(=O)N(C)[C@H](C(=O)N3CCOCC3)CC(=O)N(C)[C@@H](CC)C(=O)N[C@@H]([C@@H](C)CC)C(=O)N(C)CC(=O)N(C)[C@H]3CCCCCN(C3=O)[C@@H](Cc3ccc(F)cc3)C(=O)N(C)CC(=O)N[C@@H](CCc3cc(F)c(C(F)(F)F)c(F)c3)C(=O)N2C1 [PP1176] | 50 nM | – | 0.13 nM | – | – | B (a compound having 3 or more and less than 10 is denoted as B) | B (a compound having 3 or more and less than 10 is denoted as B) | – |
| CCO[C@@H]1C[C@H]2C(=O)NC3(CCC3)C(=O)N(C)[C@@H](C3CCCC3)C(=O)N(C)[C@H](C(=O)N(C)C)CC(=O)N(C)[C@@H](CC)C(=O)N[C@@H](C(C)C)C(=O)N(C)CC(=O)N(C)[C@H]3C/C=C\CCN(C3=O)[C@@H](Cc3ccc(C(F)(F)F)cc3)C(=O)N(C)CC(=O)N[C@@H](CCc3cc(F)c(C(F)(F)F)c(F)c3)C(=O)N2C1 [PP1270] | 53.5 nM | 0.13 nM | – | A (a compound having 10 or more and less than 20 is denoted as A) | B (a compound having 3 or more and less than 10 is denoted as B) | – | – | – |
| CCC(CC)[C@H]1C(=O)N(C)[C@H](C(=O)N2CCCCC2)CC(=O)N(C)[C@@H](COC)C(=O)N[C@@H]([C@@H](C)CC)C(=O)N(C)CC(=O)N(C)[C@H]2C/C=C\CCN(C2=O)[C@@H](Cc2ccc(C(F)(F)F)cc2)C(=O)N(C)CC(=O)N[C@@H](CCc2cc(F)c(C(F)(F)F)c(F)c2)C(=O)N2C[C@H](OC(C)C)C[C@H]2C(=O)NC2(CC(C)(C)C2)C(=O)N1C [PP2608] | 53 nM | – | – | – | – | – | – | NRAS/KRAS (ratio of KD value with respect to GDP-bound NRAS wild-type protein to KD value with respect to KRAS) [2]: AA (a compound having 20 or more is denoted as AA); HRAS/KRAS (ratio of KD value with respect to GDP-bound HRAS wild-type protein to KD value with respect to KRAS) [3]: A (a compound having 10 or more and less than 20 is denoted as A); Kd [4, 10]: 1.4 nM |
| CC[C@H](C)[C@@H]1NC(=O)[C@H](CC)N(C)C(=O)C[C@@H](C(=O)N(C)C)N(C)C(=O)[C@H](C2CCCC2)N(C)C(=O)C2(CCCC2)NC(=O)[C@@H]2CCCN2C(=O)[C@H](CCc2ccc(C(F)(F)F)c(Cl)c2)NC(=O)CN(C)C(=O)[C@H](Cc2ccc(C(F)(F)F)cc2)N2C[C@H](C)CC[C@@H](C2=O)N(C)C(=O)CN(C)C1=O [PP1336] | 10.8 nM | 0.074 nM | – | B (a compound having 3 or more and less than 10 is denoted as B) | B (a compound having 3 or more and less than 10 is denoted as B) | – | – | – |
| CCCN1C(=O)CN(C)C(=O)CN(C)C(=O)[C@H]([C@@H](C)CC)NC(=O)[C@H](CC(C)C)N(C)C(=O)C[C@@H](C(=O)N2CCOCC2)N(C)C(=O)[C@H](C2CCCC2)N(C)C(=O)[C@](C)(COC(C)(C)C)NC(=O)[C@@H]2CCCN2C(=O)[C@H](CCc2cc(F)c(C(F)(F)F)c(F)c2)NC(=O)CN(C)C(=O)[C@@H]1Cc1ccc(C(F)(F)F)cc1 [PP0764] ([NMeL]I[Sar][Sar][NPrPhe(4-CF3)][Sar][hPhe(3,5-F2-4-CF3)]P[αMeS](tBu)[NMeGly(cPent)][NMeD]-Morpholide; lactam N-11) | 215 nM | – | – | – | – | – | – | NRAS/KRAS (ratio of KD value with respect to NRAS to KD value with respect to KRAS) [2, 8]: B (a compound having 3 or more and less than 10 is denoted as B); HRAS/KRAS (ratio of KD value with respect to HRAS to KD value with respect to KRAS) [3, 9]: B (a compound having 3 or more and less than 10 is denoted as B); Kd [4, 10]: 3.4 nM |
| CC[C@H](C)[C@@H]1NC(=O)[C@H](CC)N(C)C(=O)C[C@@H](C(=O)N(C)C)N(C)C(=O)[C@H](C2CCCC2)N(C)C(=O)C2(CCC2)NC(=O)[C@@H]2CC(F)(F)CN2C(=O)[C@H](CCc2cc(F)c(C(F)(F)F)c(F)c2)NC(=O)CN(C)C(=O)[C@H](CC2CCC(F)(F)CC2)N2CC/C=C\C[C@@H](C2=O)N(C)C(=O)CN(C)C1=O [PP1448, (2S,8S,14S,20S,23S,27S,30S,36S,38Z)-20-cyclopentyl-2-[(4,4-difluorocyclohexyl)methyl]-8-[2-[3,5-difluoro-4-(trifluoromethyl)phenyl]ethyl]-27-ethyl-12,12-difluoro-N,N,4,19,22,26,32,35-octamethyl-30-[(1S)-1-methylpropyl]-3,6,9,15,18,21,25,28,31,34,42-undecaoxo-spiro[1,4,7,10,16,19,22,26,29,32,35-undecazatricyclo[34.5.1.0^10,14]dotetracont-38-ene-17,1′-cyclobutane]-23-carboxamide] | 8.3 nM | 0.059 nM | – | A (a compound having 10 or more and less than 20 is denoted as A) | A (a compound having 10 or more and less than 20 is denoted as A) | – | – | – |

More lines, main results first:

| IC50 [1] | Kd [4, 7] | Kd ([4]; SPR, Single Cycle Kinetics) | SMILES | NRAS/KRAS (ratio of KD value for NRAS to KD value for KRAS) [2, 5] | HRAS/KRAS (ratio of KD value for HRAS to KD value for KRAS) [3, 6] | NRAS/KRAS (ratio of KD value for NRAS to KD value for KRAS) [2, 8] | HRAS/KRAS (ratio of KD value for HRAS to KD value for KRAS) [3, 9] | also measured |
| --- | --- | --- | --- | --- | --- | --- | --- | --- |
| 75 nM | – | – | CCC[C@H]1C(=O)N[C@@H]([C@@H](C)CC)C(=O)N(C)CC(=O)N(C)[C@H]2C/C=C\CCN(C2=O)[C@@H](Cc2ccc(C)cc2)C(=O)N(C)CC(=O)N[C@@H](CCc2ccc(Cl)c(Cl)c2)C(=O)N2C[C@H](OC3CCC3)C[C@H]2C(=O)NC2(CC(C)(C)C2)C(=O)N(C)[C@@H](C(CC)CC)C(=O)N(C)[C@H](C(=O)N(C)C)CC(=O)N1C [PP2644] | – | – | – | – | NRAS/KRAS (ratio of KD value with respect to GDP-bound NRAS wild-type protein to KD value with respect to KRAS) [2]: AA (a compound having 20 or more is denoted as AA); HRAS/KRAS (ratio of KD value with respect to GDP-bound HRAS wild-type protein to KD value with respect to KRAS) [3]: A (a compound having 10 or more and less than 20 is denoted as A); Kd [4, 10]: 0.81 nM |
| 125 nM | – | 1.7 nM | CCC(CC)[C@H]1C(=O)N(C)[C@H](C(=O)N(C)C)CC(=O)N(C)[C@@H](CC2CC2)C(=O)N[C@@H]([C@@H](C)CC)C(=O)N(C)CC(=O)N(C)[C@H]2C/C=C\CCN(C2=O)[C@@H](CC2CCC(F)(F)CC2)C(=O)N(C)CC(=O)N[C@@H](CCc2cc(F)c(C(F)(F)F)c(F)c2)C(=O)N2C[C@@H](C)C[C@H]2C(=O)NC2(CC(C)(C)C2)C(=O)N1C [PP2500] | – | – | A (a compound having 10 or more and less than 20 is denoted as A) | A (a compound having 10 or more and less than 20 is denoted as A) | – |
| 8.3 nM | – | 4.5 nM | CCCOC[C@H]1C(=O)N[C@@H]([C@@H](C)CC)C(=O)N2CCC[C@H]2C(=O)N(C)[C@H]2C/C=C\CCN(C2=O)[C@@H](Cc2ccc(C)cc2)C(=O)N(C)CC(=O)N[C@@H](CCc2ccc(C(F)(F)F)c(OC)c2)C(=O)N2C[C@@H](C)C[C@H]2C(=O)NC2(CC(C)(C)C2)C(=O)N(C)[C@@H](C2CCCC2)C(=O)N(C)[C@H](C(=O)N(C)CC)CC(=O)N1C [PP2429] | – | – | A (a compound having 10 or more and less than 20 is denoted as A) | B (a compound having 3 or more and less than 10 is denoted as B) | – |
| 124 nM | – | 2.9 nM | CCC[C@H]1C(=O)N[C@@H](CC(C)C)C(=O)N(CC)CC(=O)N(C)[C@H]2C/C=C\CCN(C2=O)[C@@H](Cc2ccc(C)cc2)C(=O)N(C)CC(=O)N[C@@H](CCc2cc(F)c(C(F)(F)F)c(F)c2)C(=O)N2C[C@H](OCC)C[C@H]2C(=O)NC2(CC(C)(C)C2)C(=O)N(C)[C@@H](C2CCCC2)C(=O)N(C)[C@H](C(=O)N(C)C)CC(=O)N1C [PP2516] | – | – | A (a compound having 10 or more and less than 20 is denoted as A) | B (a compound having 3 or more and less than 10 is denoted as B) | – |
